Data: PubChem BioAssay (NCI)
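Values below derive from 48-hour exposures of cells grown in 96-well plates, with endpoints linearly interpolated between the two concentrations bracketing the appropriate inhibition level. TGI denotes the concentration required for complete inhibition of growth.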

Legend:
Assay in all cases: growth of human tumour cells (NCI), 48 h
CCRF-CEM leukemia = tested on: CCRF-CEM leukemia
HS 578T breast = tested on: HS 578T breast
MCF7 breast = tested on: MCF7 breast
MDA-N = tested on: MDA-N
SR leukemia = tested on: SR leukemia
T-47D breast = tested on: T-47D breast
TK-10 renal = tested on: TK-10 renal
SF-268 CNS = tested on: SF-268 CNS
EKVX NSCLC = tested on: EKVX NSCLC
MOLT-4 leukemia = tested on: MOLT-4 leukemia

| Compound | TGI (CCRF-CEM leukemia) [µM] | TGI (HS 578T breast) [µM] | TGI (MCF7 breast) [µM] | TGI (MDA-N) [µM] | TGI (SR leukemia) [µM] | TGI (T-47D breast) [µM] | TGI (TK-10 renal) [µM] | TGI (SF-268 CNS) [µM] | TGI (EKVX NSCLC) [µM] | TGI (MOLT-4 leukemia) [µM] |
| --- | --- | --- | --- | --- | --- | --- | --- | --- | --- | --- |
| N#Cc1c(-c2ccc([N+](=O)[O-])cc2)cc(-c2ccc(Nc3ccnc4cc(Cl)ccc34)cc2)nc1N | 3.8 | 29.9 | 4.73 | 17.1 | 2.48 | 11.1 | 43 | 42.2 | 38 | 5.4 |
| Cc1ccc(C(=O)N/N=C2/C(=O)c3c4ccccc4cc4cccc2c34)cc1 | > 100 | 58.1 | 11.6 | > 100 | > 100 | 83.2 | > 100 | 88.2 | > 100 | > 100 |
| O=P1(Cc2ccccc2)c2ccccc2-c2ccccc21 | > 100 | > 72 | > 39.3 | 10.9 | 26.9 | 6 | 36 | > 100 | > 73.1 | 30.5 |
| CC(C)=C[C@@H]1O[C@H](O)[C@@H]([C@H]2CC[C@@]3(C)[C@@H]4CC[C@H]5C(C)(C)C(=O)CC[C@@]56C[C@@]46CC[C@]23C)[C@@H]1O | 24.1 | 48.4 | 25 | 31.3 | 25.8 | 35.5 | 30.1 | 39.4 | 33 | 32.4 |
| CCOC1CCN(C(=O)c2ccccc2)O1 (stereo not drawn) | > 10 | > 10 | > 10 | > 10 | > 10 | > 10 | > 10 | > 10 | > 10 | > 10 |
| COc1cccc2cc(C(=O)NC34CC5CC(CC(C5)C3)C4)c(=N)oc12 | > 65.2 | > 96.7 | > 100 | > 100 | > 47.4 | > 74.4 | > 100 | > 100 | > 100 | 23.2 |
| C[n+]1ccccc1/C1=c2\cc/c([nH]2)=C(\c2cccc[n+]2C)C2=N/C(=C(/c3cccc[n+]3C)C3C=CC(N3)/C(c3cccc[n+]3C)=C3/C=CC1=N3)C=C2 | > 100 | > 100 | > 100 | > 100 | > 100 | > 100 | > 100 | > 100 | > 100 | > 100 |
| CCOC(=O)/C=C(/C(=O)OCC)n1ccc(=O)n(Cc2cnnn2CCCCOC(C)=O)c1=O | 30.9 | > 100 | > 100 | > 100 | > 100 | > 100 | > 100 | > 100 | > 100 | > 100 |
| C[C@H]1O[C@@H](C(C)(C)C)OC(=O)[C@@H]1C(OC(=O)c1ccccc1)c1cccc2ccccc12 (stereo partly drawn) | > 100 | > 100 | > 100 | > 100 | > 100 | > 100 | > 100 | > 100 | > 100 | > 100 |
| Cc1cc(N(CCC#N)CCC#N)ccc1/C(N=Nc1ccc([N+](=O)[O-])cc1)=N\NC(=O)c1ccccc1 | > 100 | 64.5 | > 100 | > 100 | > 100 | 97.1 | > 100 | > 100 | > 100 | > 100 |
| CCOC(=O)c1nc2cc(C(F)(F)F)ccc2nc1Oc1ccc(F)cc1 | > 100 | > 100 | > 100 | > 100 | > 100 | > 100 | > 100 | > 100 | > 100 | > 100 |
| COc1ccc(/C=C/C(=O)Oc2ccccc2OC)cc1 | 10.5 | > 89.6 | > 100 | > 100 | 32.3 | > 92.2 | > 100 | 4.71 | > 100 | 3.44 |
| CC(CC[C@@]1(O)OC2C[C@H]3[C@@H]4CC[C@H]5CC(OC6OC(CO)C(OC7OC(CO)C(O)C(OC8OCC(O)C(O)C8O)C7OC7OC(CO)C(O)C(O)C7O)C(O)C6O)[C@H](O)CC5(C)[C@H]4CCC3(C)C2[C@@H]1C)COC1OC(CO)C(O)C(O)C1O (stereo partly drawn) | > 50 | > 50 | > 50 | > 50 | > 50 | 34.6 | 16.6 | 9.32 | 8.9 | > 50 |
| CCNC(=S)NNC(=O)CSc1nc2ccc(I)cc2c(=O)n1Cc1ccccc1 | > 100 | > 100 | > 100 | > 100 | > 100 | > 100 | > 100 | > 100 | > 88 | > 100 |
| COc1cc(S(=O)(=O)Nc2ccc(-c3csc(N4C(=O)C(Cl)C4c4cccs4)n3)cc2)ccc1Cl (stereo not drawn) | 35.7 | > 100 | > 100 | > 100 | 91.5 | > 100 | – | > 100 | > 100 | > 100 |
| CCC(=O)Nc1ccc(NCC(=O)Nc2ccc(OC)cc2)cc1 | > 100 | > 100 | 33.3 | > 100 | > 100 | 70.1 | – | 39.7 | 70.7 | > 100 |

| Compound | TGI (CCRF-CEM leukemia) [µM] | TGI (HS 578T breast) [µM] | TGI (MCF7 breast) [µM] | TGI (MDA-N) [µM] | TGI (SR leukemia) [µM] | TGI (T-47D breast) [µM] | TGI (TK-10 renal) [µM] | TGI (SF-268 CNS) [µM] | TGI (EKVX NSCLC) [µM] | TGI (MOLT-4 leukemia) [µM] |
| --- | --- | --- | --- | --- | --- | --- | --- | --- | --- | --- |
| CC(=O)n1nc(-c2ccc3ccccc3c2)nc1C | > 100 | > 100 | > 100 | > 100 | > 100 | > 100 | > 100 | > 100 | > 100 | > 100 |
| N#Cc1c(-c2ccccc2)cc(Nc2ccc(Cl)cc2)n2c1nc1ccccc12 | > 94.7 | 20.2 | > 76.3 | > 41.6 | 20.3 | > 43 | > 100 | > 100 | > 46.7 | 9.5 |
| Nc1c2cc3ccc2nc2ccc(cc12)OCCOCCOCCOCCOCCOCCO3 | > 10 | > 10 | > 10 | > 10 | > 10 | > 10 | > 10 | > 10 | > 10 | > 10 |
| C=C(C)C(=O)OC1C[C@H](COC(C)=O)C2CC=C(CO)C2C2OC(=O)C(=C)[C@H]12 (stereo partly drawn) | 31.5 | > 100 | > 100 | > 100 | 65.2 | > 100 | > 100 | 60.2 | > 100 | 45.7 |
| O=C1C(Cl)=C(NCCF)C(=O)c2ncccc21 | 0.806 | 4 | 3.54 | 0.392 | > 10 | 4.25 | 3.65 | 4.22 | 3.08 | 3.72 |
| COc1ccc(C2C3=C(COC3=O)OC(C)(C)Oc3cc4c(cc32)OCO4)cc1OC (stereo not drawn) | > 100 | > 100 | > 90.9 | 39.2 | > 100 | 96.9 | > 100 | > 31.6 | > 89.8 | > 100 |
| C=CC[C@]1(C2=NC(C)(C)CO2)c2ccccc2-c2ccccc2[C@H]1C(C)=O | 37.2 | 25.1 | 24.8 | 8.45 | 14 | > 69.5 | 34.4 | 29.3 | 40.6 | 50 |
| CCN(CC)CCN1C(=O)C(=O)N(c2cccc3ccccc23)C1=O | > 10 | > 10 | > 10 | > 10 | > 10 | > 10 | > 10 | > 10 | > 10 | > 10 |
| O=C1NC(=Nc2ccccc2Cl)N/C1=C\c1ccc(Cl)cc1Cl | > 100 | > 100 | > 100 | > 100 | > 100 | > 100 | > 100 | > 100 | > 100 | > 100 |
| COc1ccc2oc(C(=O)N3CC(CCl)c4ccc(N)cc43)cc2c1 (stereo not drawn) | 9.17 | 3.53 | 3.02 | 1.82 | 4.76 | 3.87 | 7.12 | 9.61 | 4 | 5.44 |
| C[n+]1cn(-c2nc3ccccc3nc2[N-]S(=O)(=O)c2ccccc2)c2ccccc21 | > 100 | > 100 | > 100 | > 100 | > 100 | > 100 | > 100 | > 100 | > 100 | > 100 |
| CC(=O)NC1(C)C(C)C2CC1C(C)C2(C)C (stereo not drawn) | > 100 | > 100 | > 100 | > 100 | > 100 | > 100 | > 100 | > 100 | > 100 | > 100 |
| NCCNC(=O)CN(CC(=O)O)C1CCCCC1N(CC(=O)O)CC(=O)O (stereo not drawn) | > 100 | > 100 | > 100 | > 100 | > 100 | > 100 | > 100 | > 100 | > 100 | > 100 |
| C#C[C@]1(O)CC[C@H]2[C@@H]3CCC4=C/C(=N/OC(=O)c5cccc6c(=O)c7ccccc7[nH]c56)CCC4[C@H]3CC[C@@]21CC (stereo partly drawn) | > 54.1 | > 100 | > 93.5 | > 100 | 35.7 | > 75.9 | > 100 | > 100 | > 100 | > 69.2 |
| COC(=O)CNC(=O)CCC(C)[C@H]1CCC2C3C(C[C@H](OC(C)=O)[C@@]21C)[C@@]1(C)CCC2(C[C@H]1C[C@H]3OC(C)=O)OOC1(CCCCC1)OO2 (stereo partly drawn) | 5.02 | 6.7 | 13.9 | 3.36 | 4.21 | 5.03 | 24.2 | 3.59 | 3.74 | 11.9 |
| CC(=O)c1c(O)n(-c2ccc(C)cc2)c(=O)c2c(N)n[nH]c12 | > 100 | > 100 | > 100 | > 100 | > 100 | > 100 | > 100 | > 100 | > 100 | > 100 |
